This is an account of results in patent US9844543B2, “Method of treating or preventing hyperlipidemia with caffeamide derivatives” (priority 2015, dated 2017).

Holding throughout (type): in vivo, C57BL/6J mice
Test [1] can be described thus: Measurement of hepatic lipids in high-fat diet-fed mice. As to conditions: 0.01 g/kg/day oral, week 12. The method, then: (§1) All animal procedures were performed as per guidelines provided by the Institutional Animal Care and Use Committee of Central Taiwan University of Science and Technology. Firstly, C57BL/6J mice (4-5 weeks old) were purchased from the National Laboratory Animal Breeding and Research Center, National Science Council, Taiwan, and were maintained on a 12-hour light/dark cycle (light cycle: 7 a.m. to 7 p.m.). Seven days after acclimation, the C57BL/6J mice were divided randomly into two groups: the control group (CON, n=9) was fed with low-fat diet (Diet 12450B, Research Diets, Inc., New Brunswick, N.J. 08901, USA), whereas the experimental group (n=36) was fed with a 45% high-fat diet (Diet 12451, Research Diets, Inc., New Brunswick, N.J. 08901, USA) for 12 weeks. […] The body weight was measured weekly throughout the experimentation. […] Livers and white adipose tissue (WATs, including epididymal mesenteric, and retroperitoneal WAT) were excised according to the defined anatomical landmarks, and the weight of the tissues was measured. […]
For hepatic lipid extraction, a 0.375 g liver samples were homogenized with 1 mL distill water for 5 minutes. The dried pellet was finally resuspended in 0.5 mL ethanol and analyzed using a triglycerides kit as used for analyzing the serum lipids set forth above.

Test [2] can be described thus: Blood parameters assay (TG, FFA, TC, adiponectin, leptin) in high-fat diet-fed mice. As to conditions: 0.01 g/kg/day oral. As for the experimental part: All animal procedures were performed as per guidelines provided by the Institutional Animal Care and Use Committee of Central Taiwan University of Science and Technology. Firstly, C57BL/6J mice (4-5 weeks old) were purchased from the National Laboratory Animal Breeding and Research Center, National Science Council, Taiwan, and were maintained on a 12-hour light/dark cycle (light cycle: 7 a.m. to 7 p.m.). […] After 8-week diet-induction period, the high-fat treated mice were randomly subdivided into four groups (n=9 per group), namely, control group (CON), high-fat control group (HF), TS group (including T1 and T2, representing mice treated with the compound of the present invention using a dosage of 10 mg/kg/day and 20 mg/kg/day, respectively), rosiglitazone treated group (Rosi; 1% methylcellulose 10 mg/kg body weight, obtained from GlaxoSmithKline, product number: BRL49653 C). TS and Rosi group were administrated through oral gavage one time per day from the 9th to the 12th week of the experiment while the mice were still on the high-fat diet. On the other hand, CON and HF groups were treated with vehicle only. The body weight was measured weekly throughout the experimentation. By the end of the experimentation, food was deprived from the mice (from 10 p.m. to 10 a.m.) On the next day (the 85th day), all mice were sacrificed for blood and tissue collection and analysis. The mice were untreated with TS or Rosi at the 85th day. Livers and white adipose tissue (WATs, including epididymal mesenteric, and retroperitoneal WAT) were excised according to the defined anatomical landmarks, and the weight of the tissues was measured. Tissues were immediately frozen using liqid nitrogen and then kept at −80° C. for the analysis of target gene expression. Heparin (30 units/mL, Sigma) was added into blood sample. Plasma samples were collected by centrifugation at […] for 15 minutes at 4° C. The separation of the plasma was finished within 30 minutes. Plasma was obtained for leptin assay.
Blood samples (0.8 mL) were collected from the retro-orbital sinus of fasting mice and the plasma triglycerides (TG), total cholesterol (TC), and free fatty acids (FFA) were analyzed using commercial assay kits according to the manufacture's directions (Triglycerides-E test, Cholesterol-E test, and FFA-C test, Wako Pure Chemical, Osaka, Japan).
The levels of adiponectin and leptin were analyzed by ELISA using commercial assay kits according to manufacture's directions (mouse/rat adiponectin ELISA kit, B-Bridege International, GmbH, Germany, and mouse leptin ELISA kit, Morinaga, Yokohama, Japan).

Test [3] can be described thus: Body weight, weight gain and absolute tissue weights in high-fat diet-fed mice. The method, then:
All animal procedures were performed as per guidelines provided by the Institutional Animal Care and Use Committee of Central Taiwan University of Science and Technology. Firstly, C57BL/6J mice (4-5 weeks old) were purchased from the National Laboratory Animal Breeding and Research Center, National Science Council, Taiwan, and were maintained on a 12-hour light/dark cycle (light cycle: 7 a.m. to 7 p.m.). Seven days after acclimation, the C57BL/6J mice were divided randomly into two groups: the control group (CON, n=9) was fed with low-fat diet (Diet 12450B, Research Diets, Inc., New Brunswick, N.J. 08901, USA), whereas the experimental group (n=36) was fed with a 45% high-fat diet (Diet 12451, Research Diets, Inc., New Brunswick, N.J. 08901, USA) for 12 weeks. The low-fat diet was composed of protein 20%, carbohydrate 70% and fat 10%, whereas the high-fat diet was composed of protein 20%, carbohydrate 35%, and fat 45% (of total energy, % kcal). After 8-week diet-induction period, the high-fat treated mice were randomly subdivided into four groups (n=9 per group), namely, control group (CON), high-fat control group (HF), TS group (including T1 and T2, representing mice treated with the compound of the present invention using a dosage of 10 mg/kg/day and 20 mg/kg/day, respectively), rosiglitazone treated group (Rosi; 1% methylcellulose 10 mg/kg body weight, obtained from GlaxoSmithKline, product number: BRL49653 C). TS and Rosi group were administrated through oral gavage one time per day from the 9th to the 12th week of the experiment while the mice were still on the high-fat diet. On the other hand, CON and HF groups were treated with vehicle only. The body weight was measured weekly throughout the experimentation. By the end of the experimentation, food was deprived from the mice (from 10 p.m. to 10 a.m.) On the next day (the 85th day), all mice were sacrificed for blood and tissue collection and analysis. The mice were untreated with TS or Rosi at the 85th day. Livers and white adipose tissue (WATs, including epididymal mesenteric, and retroperitoneal WAT) were excised according to the defined anatomical landmarks, and the weight of the tissues was measured. Tissues were immediately frozen using liqid nitrogen and then kept at −80° C. for the analysis of target gene expression. Heparin (30 units/mL, Sigma) was added into blood sample. Plasma samples were collected by centrifugation at […] for 15 minutes at 4° C. The separation of the plasma was finished within 30 minutes. Plasma was obtained for leptin assay.
Body weight of mice was monitored and measured daily at the same time throughout the experimentation. The differences between the body weight of the next day and the former day is defined as body weight gain. The pellet food was weighed and followed by being placed in the cage food container. Unconsumed pellet high-fat food was discarded each day and fresh pellet of high-fat diet was provided to ensure consistent food quality throughout the experimentation. The high-fat food was stored at 4° C.

Test [4] relates to adipocytes from epididymal white adipose tissue. The test can be described thus: Histopathology of epididymal white adipose tissue (adipocyte size). As to conditions: high-fat diet mice, 10 mg/kg/day oral; HF 6765.87, CON 3263.78. As for the experimental part:
as §1, with “weeks. The low-fat diet was composed of protein 20%, carbohydrate 70% and fat 10%, whereas the high-fat diet was composed of protein 20%, carbohydrate 35%, and fat 45% (of total energy, % kcal).” for “weeks.”

The mark [5] stands for this setting: 0.01 g/kg/day oral gavage weeks 9-12.

As to `CN(CCOc1ccc(CC2SC(=O)NC2=O)cc1)c1ccccn1` (centres unmarked) [Rosi, rosiglitazone], in test [1], the “Liver lipids: Total lipid” value is on record as 60.2 ± 5.4 mg/g and the “Liver lipids: Triacylglycerol” value is 42.6 ± 5.8 µmol/g. In addition, in test [2] (week 12), the “Blood Adiponectin” value is on record as 7.51 ± 0.53 ng/mL, the “Blood FFA” value is on record as 1.52 ± 0.16 meq/L, the “Blood Leptin” value turned out to be 2.063 ± 0.111 µg/mL and the “Blood TC” value is recorded as 134.9 ± 3.5 mg/dL. Further, the “Blood TG” value in test [2] (week 12, fasting) was determined as 81.8 ± 5.8 mg/dL. Besides, in test [3] (setting [5]), the “Absolute tissue weight BAT” value turned out to be 0.210 ± 0.023 g, the “Absolute tissue weight MWAT” value is 0.238 ± 0.033 g, the “Absolute tissue weight RWAT” value turned out to be 0.334 ± 0.057 g and the “Absolute tissue weight Visceral fat” value came to 1.330 ± 0.138 g. For the same molecule, the “Absolute tissue weight EWAT” value in test [3] (0.01 g/kg/day oral gavage weeks 9-12, mean ± S.E. n=9) is on record as 1.003 ± 0.103 g. Besides, in test [3] (0.01 g/kg/day oral gavage weeks 9-12, week 12), the Weight gain is recorded as 0.91 ± 1.45 g. Further, the average area of the cut of the adipocytes (epididymal white adipose tissue) in test [4] is 4600 µm².
